Data: PubChem BioAssay (NCI)
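Protocol summary: plate cells (96-well), add compound at 5 concentrations, incubate 48 h, interpolate endpoints linearly. TGI: total growth inhibition.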

Legend:
Assay in all cases: inhibition of tumour cell growth, NCI panel, 48 h
[1] = test system: HCT-15 colon
[2] = test system: UACC-62 melanoma
[3] = test system: SF-295 CNS
[4] = test system: NCI/ADR-RES ovarian
[5] = test system: COLO 205 colon
[6] = test system: OVCAR-3 ovarian
[7] = test system: M14 melanoma
[8] = test system: A549 NSCLC
[9] = test system: CCRF-CEM leukemia
[10] = test system: MDA-N
[11] = test system: MOLT-4 leukemia
[12] = test system: HCT-116 colon
[13] = test system: HT29 colon
[14] = test system: OVCAR-8 ovarian
[15] = test system: HOP-92 NSCLC
[16] = test system: KM12 colon
[17] = test system: CAKI-1 renal
[18] = test system: NCI-H23 lung
[19] = test system: HL-60(TB) leukemia
[20] = test system: SF-268 CNS
[21] = test system: SF-539 CNS
[22] = test system: HCC-2998 colon
[23] = test system: MCF7 breast
[24] = test system: UO-31 renal
[25] = test system: U251 CNS
[26] = test system: OVCAR-5 ovarian
[27] = test system: MDA-MB-231 breast
[28] = test system: HOP-62 NSCLC
[29] = test system: SN12C renal
[30] = test system: ACHN renal
[31] = test system: RPMI-8226 leukemia
[32] = test system: SR leukemia
[33] = test system: SK-MEL-28 melanoma
[34] = test system: NCI-H460 lung
[35] = test system: SK-MEL-5 melanoma
[36] = test system: SK-OV-3 ovarian
[37] = test system: BT-549 breast
[38] = test system: A498 renal
[39] = test system: SNB-19 CNS
[40] = test system: T-47D breast
[41] = test system: DU-145 prostate
[42] = test system: SK-MEL-2 melanoma
[43] = test system: LOX IMVI melanoma
[44] = test system: SW-620 colon
[45] = test system: UACC-257 melanoma
[46] = test system: MDA-MB-435
[47] = test system: HS 578T breast
[48] = test system: K-562 leukemia
[49] = test system: PC-3 prostate
[50] = test system: RXF 393 renal
[51] = test system: 786-0 renal
[52] = test system: NCI-H226 lung
[53] = test system: NCI-H522 lung
[54] = test system: EKVX NSCLC
[55] = test system: IGROV1 ovarian
[56] = test system: MALME-3M melanoma
[57] = test system: OVCAR-4 ovarian
[58] = test system: SNB-75 CNS
[59] = test system: TK-10 renal

Work on `O=C(O)c1ccc(C(c2c(O)c3ccccc3oc2=O)c2c(O)c3ccccc3oc2=O)cc1` yielded a TGI [1] greater than 100 µM, a TGI [2] greater than 100 µM and a TGI [3] greater than 100 µM. It also gave a TGI [4] greater than 100 µM, a TGI [5] greater than 100 µM and a TGI [6] greater than 100 µM. The TGI [7] was greater than 100 µM, the TGI [8] was greater than 100 µM and the TGI [9] was greater than 100 µM. The TGI [10] was greater than 100 µM, the TGI [11] was greater than 100 µM and the TGI [12] was greater than 100 µM. It also gave a TGI [13] greater than 100 µM, a TGI [14] greater than 100 µM and a TGI [15] of 6.04 µM. It also gave a TGI [16] greater than 100 µM, a TGI [17] greater than 100 µM and a TGI [18] greater than 100 µM. The TGI [19] was 0.129 µM, the TGI [20] was greater than 100 µM and the TGI [21] was greater than 100 µM. The TGI [22] was greater than 100 µM, the TGI [23] was greater than 100 µM and the TGI [24] was greater than 100 µM. For the same compound, the TGI [25] was greater than 100 µM, the TGI [26] was greater than 100 µM and the TGI [27] was greater than 100 µM. It also gave a TGI [28] greater than 100 µM, a TGI [29] greater than 100 µM and a TGI [30] greater than 100 µM. The TGI [31] was greater than 100 µM, the TGI [32] was greater than 100 µM and the TGI [33] was greater than 100 µM. For the same compound, the TGI [34] was greater than 100 µM, the TGI [35] was greater than 100 µM and the TGI [36] was greater than 100 µM. The TGI [37] was greater than 100 µM, the TGI [38] was greater than 100 µM and the TGI [39] was greater than 100 µM. It also gave a TGI [40] greater than 100 µM, a TGI [41] greater than 100 µM and a TGI [42] greater than 100 µM. The TGI [43] was greater than 100 µM, the TGI [44] was greater than 100 µM and the TGI [45] was greater than 100 µM. It also gave a TGI [46] greater than 100 µM, a TGI [47] of 62.7 µM and a TGI [48] greater than 100 µM. The TGI [49] was greater than 100 µM, the TGI [50] was greater than 100 µM and the TGI [51] was greater than 100 µM.

With `O=[N+]([O-])c1cc(-[n+]2cc([O-])on2)ccc1F` the TGI [1] was 52.8 µM, the TGI [52] was 47 µM and the TGI [2] was 30.8 µM. The TGI [3] was 31.5 µM, the TGI [4] was 52 µM and the TGI [5] was 35.2 µM. For the same compound, the TGI [6] was 32.6 µM, the TGI [53] was 22.2 µM and the TGI [7] was 29.6 µM. It also gave a TGI [8] of 33.4 µM, a TGI [9] of 38.6 µM and a TGI [54] of 34.8 µM. For the same compound, the TGI [10] was 30.7 µM, the TGI [12] was 28.6 µM and the TGI [13] was 33.3 µM. It also gave a TGI [14] of 30.9 µM, a TGI [15] of 32.6 µM and a TGI [16] of 31.5 µM. For the same compound, the TGI [55] was 28.3 µM, the TGI [56] was 29 µM and the TGI [17] was 4.2 µM. It also gave a TGI [18] of 33.5 µM, a TGI [19] of 49 µM and a TGI [20] of 28.9 µM. It also gave a TGI [57] of 30.4 µM, a TGI [22] of 28.6 µM and a TGI [23] of 29.4 µM. For the same compound, the TGI [24] was 13.1 µM, the TGI [25] was 32.4 µM and the TGI [26] was 31.2 µM. For the same compound, the TGI [27] was 38 µM, the TGI [28] was 30.3 µM and the TGI [29] was 31.2 µM. For the same compound, the TGI [30] was 30.7 µM, the TGI [31] was greater than 100 µM and the TGI [32] was greater than 100 µM. The TGI [58] was 27 µM, the TGI [33] was 29.8 µM and the TGI [34] was 39.3 µM. The TGI [35] was 28.4 µM, the TGI [36] was 35.8 µM and the TGI [37] was 31.3 µM. It also gave a TGI [39] of 21.3 µM, a TGI [40] of 15.5 µM and a TGI [41] of 25.4 µM. It also gave a TGI [42] of 31 µM, a TGI [43] of 31.1 µM and a TGI [44] of 38.3 µM. The TGI [45] was 31.6 µM, the TGI [46] was 29.8 µM and the TGI [47] was 61.5 µM. For the same compound, the TGI [48] was greater than 100 µM, the TGI [59] was 33.1 µM and the TGI [49] was 35.1 µM. The TGI [50] was 27.2 µM and the TGI [51] was 24 µM.

Work on `Cn1c2ccccc2c(=NNc2ccccc2C(=O)O)c2ccccc21` yielded a TGI [1] of 27.5 µM, a TGI [52] of 45.8 µM and a TGI [2] of 54 µM. For the same compound, the TGI [3] was 82.6 µM, the TGI [4] was 60.8 µM and the TGI [5] was 34.1 µM. For the same compound, the TGI [6] was 28.5 µM, the TGI [53] was 33.3 µM and the TGI [7] was 53.5 µM. It also gave a TGI [8] of 77.2 µM, a TGI [9] of 72 µM and a TGI [54] of 38 µM. The TGI [10] was 46.4 µM, the TGI [11] was greater than 100 µM and the TGI [12] was 37.7 µM. It also gave a TGI [13] of 38.1 µM, a TGI [14] of 66.2 µM and a TGI [15] of 67.6 µM. For the same compound, the TGI [16] was 42.2 µM, the TGI [55] was 94.3 µM and the TGI [56] was 43.7 µM. The TGI [17] was 91.2 µM, the TGI [18] was 76.8 µM and the TGI [19] was 44.5 µM. The TGI [20] was 56.3 µM, the TGI [57] was 44.9 µM and the TGI [21] was 36.1 µM. For the same compound, the TGI [22] was 46.8 µM, the TGI [23] was 30.5 µM and the TGI [24] was 64.5 µM. For the same compound, the TGI [25] was 34.6 µM, the TGI [26] was 85 µM and the TGI [27] was 59.1 µM. It also gave a TGI [28] of 75.4 µM, a TGI [29] of 83.1 µM and a TGI [30] of 48.2 µM. For the same compound, the TGI [31] was 53.3 µM, the TGI [32] was 44.6 µM and the TGI [58] was 67 µM. It also gave a TGI [33] of 57.5 µM, a TGI [34] of 39.7 µM and a TGI [35] of 28 µM. The TGI [36] was 71.1 µM, the TGI [37] was 61 µM and the TGI [39] was greater than 100 µM. It also gave a TGI [40] of 88.3 µM, a TGI [41] greater than 100 µM and a TGI [42] of 43.7 µM. The TGI [43] was 25.6 µM, the TGI [44] was 84.8 µM and the TGI [45] was 51.5 µM. The TGI [46] was 39.6 µM, the TGI [47] was 83.1 µM and the TGI [48] was 28.5 µM. The TGI [59] was 75.2 µM, the TGI [49] was 42.3 µM and the TGI [50] was 33.3 µM. The TGI [51] was greater than 100 µM.

`COc1ccc2[nH]c3c(c2c1)COc1ccccc1C3=O` gave a TGI [1] greater than 100 µM, a TGI [52] greater than 100 µM and a TGI [2] greater than 100 µM. It also gave a TGI [3] greater than 100 µM, a TGI [4] greater than 100 µM and a TGI [5] greater than 100 µM. It also gave a TGI [6] greater than 100 µM, a TGI [53] greater than 100 µM and a TGI [7] greater than 100 µM. For the same compound, the TGI [8] was greater than 100 µM, the TGI [9] was greater than 100 µM and the TGI [54] was greater than 100 µM. For the same compound, the TGI [10] was greater than 100 µM, the TGI [11] was greater than 100 µM and the TGI [12] was greater than 100 µM. The TGI [13] was greater than 100 µM, the TGI [14] was greater than 100 µM and the TGI [15] was greater than 100 µM. For the same compound, the TGI [16] was greater than 100 µM, the TGI [55] was greater than 100 µM and the TGI [56] was greater than 100 µM. The TGI [17] was greater than 100 µM, the TGI [18] was greater than 100 µM and the TGI [19] was greater than 100 µM. The TGI [20] was greater than 100 µM, the TGI [57] was greater than 100 µM and the TGI [21] was greater than 100 µM. It also gave a TGI [22] greater than 100 µM, a TGI [23] greater than 100 µM and a TGI [24] greater than 100 µM. The TGI [25] was greater than 100 µM, the TGI [26] was greater than 100 µM and the TGI [27] was greater than 100 µM. It also gave a TGI [28] greater than 100 µM, a TGI [29] greater than 100 µM and a TGI [30] greater than 100 µM. It also gave a TGI [31] greater than 100 µM, a TGI [32] greater than 100 µM and a TGI [58] greater than 100 µM. It also gave a TGI [33] greater than 100 µM, a TGI [34] greater than 100 µM and a TGI [35] greater than 100 µM. It also gave a TGI [36] greater than 100 µM, a TGI [37] greater than 100 µM and a TGI [38] greater than 100 µM. The TGI [39] was greater than 100 µM, the TGI [40] was greater than 100 µM and the TGI [41] was greater than 100 µM. The TGI [42] was greater than 100 µM, the TGI [43] was greater than 100 µM and the TGI [44] was greater than 100 µM. For the same compound, the TGI [45] was greater than 100 µM, the TGI [46] was greater than 100 µM and the TGI [47] was greater than 100 µM. For the same compound, the TGI [48] was greater than 100 µM, the TGI [59] was greater than 100 µM and the TGI [49] was greater than 100 µM. The TGI [51] was greater than 100 µM.
